Test results taken from US7888504B2, “Glucokinase activators and methods of using same” (Bristol-Myers Squibb Company, priority 2006, dated 2011).

target: T1, Human Glucokinase (Homo sapiens, UniProt P35557); experiment: tandem Glucokinase activation assay (uncoupled); assay type: biochemical; conditions: 12 mM glucose; human full-length GK 15 nM
T1 construct: Full-length human hepatic GK (untagged); made in house; host or cells: E. coli BL21 STAR (DE3)pLysS
T1 sequence (P35557 1-466 isoform P35557-2): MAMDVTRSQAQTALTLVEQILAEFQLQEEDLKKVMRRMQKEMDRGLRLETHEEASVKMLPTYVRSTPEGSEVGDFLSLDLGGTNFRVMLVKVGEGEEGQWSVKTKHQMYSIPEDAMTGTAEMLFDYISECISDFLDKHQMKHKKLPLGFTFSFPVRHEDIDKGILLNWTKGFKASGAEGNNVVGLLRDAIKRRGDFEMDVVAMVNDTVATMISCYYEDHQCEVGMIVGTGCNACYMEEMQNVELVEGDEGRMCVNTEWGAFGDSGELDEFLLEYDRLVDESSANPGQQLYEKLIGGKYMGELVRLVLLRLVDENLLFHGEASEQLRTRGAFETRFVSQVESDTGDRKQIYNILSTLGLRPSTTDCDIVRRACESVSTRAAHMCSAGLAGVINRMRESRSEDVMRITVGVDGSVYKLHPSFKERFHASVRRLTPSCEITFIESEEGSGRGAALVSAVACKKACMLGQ
Procedure: A tandem Glucokinase activation assay (uncoupled) was used to assess the activity of glucokinase (GK) in the presence of GK activator compounds. The below-described tandem assay protocol was followed using a range of activator compound concentrations from 0 to 100 µM at 5 and 12 mM concentrations of glucose. Human full-length GK (15 nM) was incubated with 5 or 12 mM glucose in 384 well black microtiter plates with a clear bottom. To initiate the GK reaction, magnesium-ATP (3 mM final concentration) was added to the protein in buffer, under the final buffer conditions of 25 mM HEPES buffer, pH 7.1, containing 1 mM DTT (dithiothreitol) and […]. The total reaction volume was 20 μL. The reaction was allowed to proceed for ten minutes and was then quenched with 5 μL EDTA (ethylenediamine tetra-acetic acid; 45 mM final). The components of the detection reaction, ThioNAD (thio-nicotinamide adenine dinucleotide) and G6PDH (glucose-6-phosphate dehydrogenase) (final concentrations of 650 μM and 3.33 Units, respectively), were then added together in a volume of 25 μL, and a total volume of 50 μL. Absorbance was read and activation calculated as a percentage of background activity, ie., GK in the presence of DMSO, with background glucose-6-phosphate subtracted. Absorbance measurements were made at 405 nm on a Spectramax Plus 384 absorbance plate reader (Molecular Devices). Background glucose-6-phosphate was determined by pre-quenching GK with EDTA prior to reaction initiation with ATP.
Expression and Purification of Human GK
Full-length human hepatic GK (untagged) as expressed in BL21 STAR (DE3)pLysS cells (Invitrogen) at 25° C. as described by Mookhtiar et al.^1 The protein was purified essentially as described by Lange^2 with a slight modification. Cell pellets were lysed via three rounds of freezing and thawing, centrifuged at 15000 g for clarification, and precipitated with 40-65% (NH4)2SO4. The resulting pellet was re-suspended in buffer dialyzed, and applied directly to a Q-Sepharose (Sigma) column followed by elution with a linear 100-600 mM KCl gradient. GK containing fractions were pooled, dialyzed overnight vs. 25 mM HEPES pH 7.2/1 mM MgCl2/1 mM EDTA/0.1 M KCl/1 mM DTT, then dialyzed again with the same buffer with 10% glycerol added. ^1Mookhtiar, K. A., Kalinowski, S. S., Brown, K. S., Tsay, Y. H., Smith-Monroy, C., and Robinson, G. W. (1996) “Heterologous expression and characterization of rat liver glucokinase regulatory protein”, Diabetes 45:1670-1677.^2Lange, A. J., Xu, L. Z., Van Poelwijk, F., Lin, K., Granner, D. K., and Pilkis, S. J. (1991) “Expression and site-directed mutagenesis of hepatic glucokinase”, Biochem. J., 277:159-163.

Question: `CS(=O)(=O)c1ccc([C@@H](CC2CCCC2)C(=O)Nc2ncc(Oc3cncc(C(=O)O)c3)s2)cc1` [Example 8] was tested. Which EC50 did it give?
Answer: 753 nM

Question: How did the EC50 turn out when `O=C(Nc1ncc(Oc2cccc(C(=O)N3CCC3)c2)s1)[C@H](CC1CCOCC1)c1ccc(S(=O)(=O)C2CC2)cc1` [Example 18] was run?
Answer: 39 nM

Question: With `O=C(Nc1ncc(Oc2cccc(C(=O)N3CC(O)C3)c2)s1)[C@H](CC1CCOCC1)c1ccc(S(=O)(=O)C2CC2)cc1` [Example 19] as the compound, how does the EC50 read?
Answer: 38 nM

Question: How did the EC50 turn out when `CS(=O)(=O)c1ccc([C@@H](CC2CCCC2)C(=O)Nc2ncc(Oc3ccc(C#N)cc3)s2)cc1` [Example 20] was run?
Answer: 8700 nM

Question: Which EC50 does the source give for `CS(=O)(=O)c1ccc([C@@H](CC2CCCC2)C(=O)Nc2ncc(Oc3cccc(C(N)=O)c3)s2)cc1` [Example 21] here?
Answer: 858 nM

Question: How did the EC50 turn out when `CS(=O)(=O)c1ccc([C@@H](CC2CCCC2)C(=O)Nc2ncc(Oc3ccccc3C(N)=O)s2)cc1` [Example 24] was run?
Answer: 3960 nM

test system: DIO mice; experiment: Oral glucose tolerance test (OGTT) in DIO mice; assay type: in vivo; conditions: male DIO C57BL/6J mice, 60 mg/kg oral, given 60 min before 2 g/kg glucose, ΔAUC 0-120 min
Procedure: In Vivo Studies: Oral Glucose Tolerance Test (OGTT)
Oral glucose tolerance tests were carried out on male DIO (diet-induced obese C57BL/6J mice fed a high fat diet (60% kcal from fat) for 26 weeks prior to experimentation. Mice were fasted overnight before use for experiments. A test compound or vehicle (10% dimethyl acetamide+10% ethanol+10% Cremophore+70% water) was given orally 60 min before oral administration of a glucose solution at a dose of 2 g/kg body weight (oral glucose tolerance test; OGTT). Blood glucose levels were measured from tail-bled samples taken at different time points before and after administration of glucose (time course of 2 hours). A time curve of the blood glucose was generated and the change from baseline area-under-the curve (ΔAUC) from 0-120 min was calculated (the time glucose administration being time zero).

Question: How did the “reduction of glucose AUC levels in an OGTT” value turn out when `CS(=O)(=O)c1ccc([C@@H](CC2CCCC2)C(=O)Nc2ncc(Oc3ccc(C(=O)O)cc3)s2)cc1` [Example 9] was run?
Answer: 37%
